Read-outs that look alike come from different tables or passages of the source.
Assays:
SARS-CoV-2 = assay: microbe, parasite or virus in culture; type: cell-based; conditions: Severe acute respiratory syndrome coronavirus 2, VeroE6/TMPRSS2, 72 h, 50% SARS-CoV-2 infected cell death inhibitory concentration, VeroE6/TMPRSS2 cells, 3 days culture
SARS-CoV-2 3CL protease = SARS-CoV-2 3CL protease (Severe acute respiratory syndrome coronavirus 2, UniProt P0DTD1); assay: biochemical; conditions: 50% SARS-CoV-2 3CL protease inhibitory concentration, read-out: IC50

SMILES | EC50 (SARS-CoV-2; CellTiter-Glo 2.0) | IC50 (SARS-CoV-2 3CL protease; RapidFire MS) | EC50 (SARS-CoV-2; class symbols) | IC50 (SARS-CoV-2 3CL protease; given as class symbols)
COc1ccc(Nc2nc(=O)n(-c3cnc4sccn34)c(=O)n2Cc2cc(F)c(F)c(F)c2)cc1 [II-0393] | 6080 nM | 3100 nM | – | –
COc1ccc(Nc2nc(=O)n(-c3cnnc(C)c3)c(=O)n2Cc2cc(F)c(F)c(F)c2)cc1 [II-0394] | 44900 nM | 3900 nM | – | –
CNc1nc2cc(Cl)c(Nc3nc(=O)n(-c4cncc(C)c4)c(=O)n3Cc3cc(C#N)ccc3C)cc2s1 [II-0395] | – | – | < 1000 nM | < 100 nM
CNc1nc2ccc(Nc3nc(=O)n(-c4cncc(Cl)c4)c(=O)n3Cc3cc(C#N)c(F)cc3C)cc2s1 [II-0396] | – | – | < 1000 nM | < 100 nM
CNc1nc2ccc(Nc3nc(=O)n(-c4cncc(C)c4)c(=O)n3Cc3cc(F)c(F)c(C#N)c3)cc2s1 [II-0397] | – | – | < 1000 nM | < 100 nM
CNc1nc2ccc(Nc3nc(=O)n(-c4cncc(Cl)c4)c(=O)n3Cc3cc(C#N)ccc3Cl)cc2s1 [II-0398] | – | – | < 1000 nM | < 100 nM
CNc1nc2cc(F)c(Nc3nc(=O)n(Cc4ncn(C)n4)c(=O)n3Cc3cc(F)c(F)cc3F)cc2s1 [II-0400] | – | – | 1000 to 10000 nM | < 100 nM
COc1ccc(Nc2nc(=O)n(-c3nncc4cnn(C)c34)c(=O)n2Cc2cc(F)c(F)c(F)c2)cc1 [II-0401] | 2330 nM | 290 nM | – | –
Cc1cncc(-n2c(=O)nc(Nc3cc4cn(C)nc4cc3Cl)n(Cc3cc(F)c(F)cc3Cl)c2=O)c1 [II-0402] | – | – | < 1000 nM | < 100 nM
Cc1cncc(-n2c(=O)nc(Nc3cc4cn(C)nc4cc3Cl)n(Cc3cc(F)c(F)cc3C)c2=O)c1 [II-0403] | – | – | < 1000 nM | < 100 nM
Cc1cncc(-n2c(=O)nc(Nc3cc4cn(C)nc4cc3Cl)n(Cc3cc(F)c(F)cc3Br)c2=O)c1 [II-0404] | – | – | < 1000 nM | < 100 nM
Cn1cnc(Cn2c(=O)nc(Nc3cc4cn(C)nc4cc3Cl)n(Cc3cc(F)c(F)cc3Cl)c2=O)n1 [II-0405] | – | – | < 1000 nM | < 100 nM
Cc1cc(F)c(F)cc1Cn1c(Nc2cc3cn(C)nc3cc2Cl)nc(=O)n(Cc2ncn(C)n2)c1=O [II-0406] | – | – | < 1000 nM | < 100 nM
Cc1cncc(-n2c(=O)nc(Nc3cc4c(cc3Cl)nc3n4CCN3)n(Cc3ccc(F)c(C#N)c3)c2=O)c1 [II-0407] | 15000 nM | 3.8 nM | – | –
N#CC1(Cn2cc3cc(Nc4nc(=O)n(Cc5ccc[nH]c5=O)c(=O)n4Cc4cc(F)c(F)c(F)c4)c(Cl)cc3n2)CC1 [II-0412] | – | – | 1000 to 10000 nM | < 100 nM
CC(C)Nc1nc2cc(Cl)c(Nc3nc(=O)n(Cc4ccc[nH]c4=O)c(=O)n3Cc3cc(F)c(F)c(F)c3)cc2s1 [II-0413] | – | – | 1000 to 10000 nM | < 100 nM
CNc1nc2cc(Cl)c(Nc3nc(=O)n(-c4cncc(C)c4)c(=O)n3Cc3ccc(F)c(C#N)c3)cc2n1C [II-0414] | – | – | 1000 to 10000 nM | < 100 nM
N#Cc1cc(Cn2c(Nc3ccc4nn(CC(F)F)cc4c3)nc(=O)n(-c3cncc(Cl)c3)c2=O)ccc1F [II-0415] | 870 nM | 15 nM | – | –
Cc1cncc(-n2c(=O)nc(Nc3cc4sc(C)nc4cc3F)n(Cc3ccc(F)c(C#N)c3)c2=O)c1 [II-0416] | – | – | 1000 to 10000 nM | < 100 nM
Cc1nc2cc(Br)c(Nc3nc(=O)n(Cc4ncn(C)n4)c(=O)n3Cc3cc(F)c(F)cc3F)cc2s1 [II-0417] | – | – | 1000 to 10000 nM | < 100 nM
COc1nc2cc(Cl)c(Nc3nc(=O)n(Cc4ccc[nH]c4=O)c(=O)n3Cc3cc(F)c(F)c(F)c3)cc2s1 [II-0418] | 6240 nM | 110 nM | – | –
CNc1nc2cc(F)c(Nc3nc(=O)n(-c4cncc(C)c4)c(=O)n3Cc3cc(C#N)ccc3C)cc2s1 [II-0419] | – | – | < 1000 nM | < 100 nM

SMILES | EC50 (SARS-CoV-2; CellTiter-Glo 2.0) | IC50 (SARS-CoV-2 3CL protease; RapidFire MS) | EC50 (SARS-CoV-2; class symbols) | IC50 (SARS-CoV-2 3CL protease; given as class symbols)
CNc1nc2ccc(Nc3nc(=O)n(-c4cncc(C)c4)c(=O)n3Cc3cc(C#N)c(F)cc3C)cc2s1 [II-0420] | – | – | < 1000 nM | < 100 nM
CNc1nc2ccc(Nc3nc(=O)n(-c4cncc(C)c4)c(=O)n3Cc3cc(C#N)c(F)cc3Cl)cc2s1 [II-0421] | – | – | < 1000 nM | < 100 nM
Cc1cncc(-n2c(=O)nc(Nc3ccc4nn(C)cc4c3)n(Cc3cc(C#N)ccc3Cl)c2=O)c1 [II-0422] | 290 nM | 6.4 nM | – | –
Cc1cncc(-n2c(=O)nc(Nc3cc4sc(NCC(F)F)nc4cc3F)n(Cc3cc(F)c(F)c(C#N)c3)c2=O)c1 [II-0423] | – | – | 1000 to 10000 nM | < 100 nM
Cc1cncc(-n2c(=O)nc(Nc3cc4sc(NCC(F)F)nc4cc3F)n(Cc3ccc(F)c(C#N)c3)c2=O)c1 [II-0424] | – | – | 1000 to 10000 nM | < 100 nM
Cc1cnc(Cn2c(=O)nc(Nc3cc4cn(C)nc4cc3Cl)n(Cc3cc(F)c(F)cc3F)c2=O)nc1 [II-0425] | 5850 nM | 260 nM | – | –
Cc1cncc(-n2c(=O)nc(Nc3cc4cn(C)nc4cc3Cl)n(Cc3cc(Cl)ccc3C#N)c2=O)c1 [II-0426] | – | – | < 1000 nM | < 100 nM
Cn1cnc(Cn2c(=O)cc(Nc3cc4cn(CC(F)F)nc4cc3Cl)n(Cc3cc(F)c(F)c(F)c3)c2=O)n1 [II-0429] | – | – | 1000 to 10000 nM | < 100 nM
Cn1cnc(Cn2c(=O)cc(Nc3cc4cn(C)nc4cc3Cl)n(Cc3cc(F)c(F)c(F)c3)c2=O)n1 [II-0430] | – | – | 1000 to 10000 nM | < 100 nM
Cn1cnc(Cn2c(=O)cc(Nc3cc4cn(C(F)F)nc4cc3Cl)n(Cc3cc(F)c(F)c(F)c3)c2=O)n1 [II-0431] | – | – | < 1000 nM | < 100 nM
Cn1cnc(Cn2c(=O)cc(Nc3cc4cn(C(F)F)nc4cc3Cl)n(Cc3ccc(F)c(C#N)c3)c2=O)n1 [II-0433] | – | – | < 1000 nM | < 100 nM
Cc1cncc(-n2c(=O)nc(Nc3cc4cn(C)nc4cc3Cl)n(Cc3cc(C#N)c(F)cc3Cc3cccc(Cl)c3)c2=O)c1 [II-0434] | – | – | < 1000 nM | < 100 nM
Cc1cncc(-n2c(=O)nc(Nc3cc4cn(C)nc4cc3Cl)n(Cc3cc(F)c(F)cc3OCC(F)(F)F)c2=O)c1 [II-0435] | – | – | 1000 to 10000 nM | < 100 nM
Cc1cncc(-n2c(=O)nc(Nc3cc4c(C)n(C)nc4cc3Cl)n(Cc3ccc(F)c(C#N)c3)c2=O)c1 [II-0436] | – | – | < 1000 nM | < 100 nM
Cc1c2cc(Nc3nc(=O)n(Cc4ncn(C)n4)c(=O)n3Cc3cc(Cl)c(F)cc3F)c(Cl)cc2nn1C [II-0437] | – | – | < 1000 nM | < 100 nM
Cc1c2cc(Nc3nc(=O)n(Cc4ncn(C)n4)c(=O)n3Cc3cc(F)c(F)c(Cl)c3)c(Cl)cc2nn1C [II-0438] | – | – | 1000 to 10000 nM | < 100 nM
Cc1cncc(-n2c(=O)nc(Nc3cc4cn(CC(F)F)nc4cc3F)n(Cc3ccc(F)c(C#N)c3)c2=O)c1 [II-0439] | – | – | < 1000 nM | < 100 nM
CNC(=O)Cn1cc2cc(Nc3nc(=O)n(-c4cncc(C)c4)c(=O)n3Cc3cc(F)c(F)c(F)c3)c(Cl)cc2n1 [II-0440] | – | – | 1000 to 10000 nM | < 100 nM
Cc1cncc(-n2c(=O)nc(Nc3cc4cn(C)nc4cc3Cl)n(Cc3ccc(F)c(Cl)c3)c2=O)c1 [II-0442] | – | – | < 1000 nM | < 100 nM
Cn1cnc(Cn2c(=O)nc(Nc3cc4c(C5CC5)n(C)nc4cc3Cl)n(Cc3cc(F)c(F)cc3F)c2=O)n1 [II-0446] | – | – | 1000 to 10000 nM | < 100 nM
Cn1cnc(Cn2c(=O)nc(Nc3cc4cn(C)nc4cc3Br)n(Cc3cc(F)c(F)c(F)c3)c2=O)n1 [II-0448] | – | – | < 1000 nM | < 100 nM
Cc1cncc(-n2c(=O)nc(Nc3cc4c(C)n(C)nc4cc3Cl)n(Cc3cc(F)c(F)c(F)c3)c2=O)c1 [II-0449] | – | – | < 1000 nM | < 100 nM

Source: patent US12559474B2, “Triazine derivatives having virus replication inhibitory activity and pharmaceutical composition comprising the same” (priority 2021, dated 2026)
